Laboratory results reported in article PMC12067278, “A responsive living material prepared by diffusion reveals extracellular enzyme activity of cyanobacteria” (Proceedings of the National Academy of Sciences of the …, 2025).

Target: T1, AmiX (Synpcc7942_1548 gene product, putative amidase) (Synechococcus elongatus, UniProt Q31MZ1)
T1 construct: expressed in E. coli BL21, clarified lysate assayed; ORF PCR product ~1,320 bp
T1 sequence (Q31MZ1 1-439 limits assumed): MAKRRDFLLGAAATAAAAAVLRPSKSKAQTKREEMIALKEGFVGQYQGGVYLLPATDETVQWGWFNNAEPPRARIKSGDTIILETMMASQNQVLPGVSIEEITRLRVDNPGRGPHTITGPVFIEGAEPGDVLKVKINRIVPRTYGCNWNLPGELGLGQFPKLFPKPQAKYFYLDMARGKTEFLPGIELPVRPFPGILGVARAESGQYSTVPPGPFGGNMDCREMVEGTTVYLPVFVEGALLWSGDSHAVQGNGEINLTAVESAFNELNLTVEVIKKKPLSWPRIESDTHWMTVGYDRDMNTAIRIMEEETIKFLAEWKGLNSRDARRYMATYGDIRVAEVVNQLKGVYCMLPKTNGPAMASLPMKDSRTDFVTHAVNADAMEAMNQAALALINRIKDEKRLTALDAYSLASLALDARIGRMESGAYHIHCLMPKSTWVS
Test: NBD-Cl amine-detection fluorescence assay ([…] nm), E. coli lysate
Assay type: biochemical
Conditions: 50 mM potassium phosphate pH 7.5, 2.5 mM NIPAm (50 uL of 50 mM in 1 mL), 20 h, high lysate background

Question: Which “NBD-Cl amine-detection fluorescence assay (485/538 nm), E. coli lysate” value does the source give for `C=CC(=O)NC(C)C` [NIPAm, N-isopropylacrylamide] here?
Answer: Its value is “the lysate containing both the S. elongatus amidase and NIPAm produced significantly more fluorescence”.
